Like-named read-outs stand apart in the source and are kept apart here.
Key:
[1] = Pharmacokinetic study after a single oral administration to mice; assay type: in vivo; settings: for cmax / tmax: single oral 100 mg/kg in 0.5% methylcellulose; for clast: concentration at last sampling time point; for AUC0-inf: extrapolated to infinity; for tlast: time of last sampling time point; for AUC0-t: time zero to tlast
Experimental: The aim of the study was to evaluate pharmacokinetic (PK) properties of five different batches including anhydrates and monohydrates of the crystal form A of compound 1a (cf. Table 1 in Example 5) after a single oral administration to mice. Three of the forms were anhydrous and two were monohydrates.
Compound 1a was administered as a suspension of 0.5% methyl cellulose (Sigma-Aldrich) in water at a dose of 100 mg/kg (10 ml/kg) by oral gavage to non-fasted female Balb/c mice (n=3).
Blood was collected by decapitation at 0.5, 1, 2, 4, 8, 12, 24, and 48 h after administration. Blood plasma was isolated by centrifugation at 4° C. (20,000×g for 10 min), transferred to microtubes containing lithium-heparin and frozen in aliquots at −70° C. until assayed by mass-spectrometry. Mean plasma concentration-time profiles (semi-logarithmic) of the five polymorphic crystal forms of compound 1a are shown in FIG. 6.
For PK evaluation, summary statistics and plotting of concentration/time curves, all values below the lower limit of quantification (LLOQ) were set to zero.

[2] = system: RBL-2H3 cells; test: Maximum tolerated concentration (cytotoxicity by lactate dehydrogenase release); assay type: cell-based, Rat; settings: for MTC (maximum tolerated concentration): highest concentration not causing cytotoxicity (LDH release), RBL-2H3 cells; for SI (safety index): ratio between MTC and IC50
Text: The safety index (SI) of a test compound is the ratio between the maximum tolerated concentration and the IC50 and is used as a measure of the relative safety of the test compound.

[3] = female Balb/c mice, plasma, 100 mg/kg
[4] = female Balb/c mice, single oral 100 mg/kg, 100 mg/kg
[5] = female Balb/c mice, single oral 100 mg/kg, terminal half-life, 100 mg/kg
[6] = female Balb/c mice, single oral 100 mg/kg

Row | SMILES | cmax [1, 3] | tmax [1, 3] | MRT [1, 4] | clast [1, 4] | AUC0-inf [1, 4] | tlast [1, 4] | AUC0-t [1, 4] | MTC (maximum tolerated concentration) [2] | SI (safety index) [2] | also measured
1 | CCCCCCCCCCCCCCCCN(C)CC(O)CS(=O)(=O)O (centres unmarked) [2208-CF/1, 2-hydroxy-3-(N-methylhexadecylammonio)propane-sulfonate] | 1003 ng/mL | 1.0 h | 5.0 h | 1.1 ng/mL | 4412 ng·h/mL | 48.0 h | 4400 ng·h/mL | – | – | overall exposure ([1]; compared among the five forms, single oral 100 mg/kg): highest; t1/2 [1, 5]: 7.3 h
2 | CCCCCCCCCCCCCCCCN(C)CC(O)CS(=O)(=O)O (centres unmarked) [2338-CF/30, 2-hydroxy-3-(N-methylhexadecylammonio)propane-sulfonate] | – | 1.0 h | – | 1.8 ng/mL | – | 48.0 h | – | – | – | cmax ([1]; female, Balb/c, mouse, plasma, po, 100 mg/kg, female Balb/c mice, plasma, read-out: cmax): 1060 ng/mL; AUC0-inf ([1]; female, Balb/c, mouse, plasma, po, 100 mg/kg, female Balb/c mice, single oral 100 mg/kg, read-out: AUC0-inf): 3140 ng·h/mL; MRT ([1]; female, Balb/c, mouse, plasma, po, 100 mg/kg, female Balb/c mice, single oral 100 mg/kg, read-out: MRT): 5.5 h; half-life ([1]; female, Balb/c, mouse, plasma, po, 100 mg/kg, female Balb/c mice, single oral 100 mg/kg, terminal half-life): 9.9 h; AUC0-t ([1]; female, Balb/c, mouse, plasma, po, 100 mg/kg, female Balb/c mice, single oral 100 mg/kg, read-out: AUC0-t): 3120 ng·h/mL
3 | CCCCCCCCCCCCCCN(C)CC(O)CS(=O)(=O)O (centres unmarked) [Compound 1b, 2-hydroxy-3-(N-methyltetradecylammonio)propanesulfonate] | – | – | – | – | – | – | – | 100 µM | 19.6 | –
4 | CCCCCCCCCCCCCC[N+](C)(C)CC(CS(=O)(=O)[O-])OC (centres unmarked) [Compound 1d, 2-methoxy-3-(N,N-dimethyl-N-tetradecylammonio)-propane-1-sulfonate] | – | – | – | – | – | – | – | 75 µM | 22.7 | –
5 | CCCCCCCCCCCCCC[N+](C)(C)CC(CS(=O)(=O)[O-])OC(C)=O (centres unmarked) [Compound 1e, 2-acetoxy-3-(N,N-dimethyltetradecylammonio)propanesulfonate] | – | – | – | – | – | – | – | 100 µM | 25.6 | –
6 | CCCCCCCCCCCCCCCCN(C)CC(O)CS(=O)(=O)O (centres unmarked) [KP-0722.11, 2-hydroxy-3-(N-methylhexadecylammonio)propane-sulfonate] | 571 ng/mL | 2.0 h | 4.8 h | 3.8 ng/mL | 3179 ng·h/mL | 24.0 h | 3162 ng·h/mL | – | – | –
7 | CCCCCCCCCCCCCCCCN(C)CC(O)CS(=O)(=O)O (centres unmarked) [KP-0726.11, 2-hydroxy-3-(N-methylhexadecylammonio)propane-sulfonate] | 759 ng/mL | 1.0 h | 5.5 h | 1.2 ng/mL | 3758 ng·h/mL | 48.0 h | 3744 ng·h/mL | – | – | second plasma peak (time after administration) [1, 6]: 8 h; t1/2 [1, 5]: 8.2 h
8 | CCCCCCCCCCCCCCCCN(C)CC(O)CS(=O)(=O)O (centres unmarked) [TN-0382.11, 2-hydroxy-3-(N-methylhexadecylammonio)propane-sulfonate] | 627 ng/mL | 1.0 h | 5.9 h | 3.4 ng/mL | 3547 ng·h/mL | 24.0 h | 3535 ng·h/mL | – | – | second plasma peak (time after administration) [1, 6]: 8 h

Source: US11453642B2, “Oxygenated amino- or ammonium-containing sulfonic acid, phosphonic acid and carboxylic acid derivatives and their medical use” (GRI BIO, INC., priority 2011, dated 2022)
